Experimental data from patent US20100298314A1, “NOVEL JNK INHIBITORS” (Schering Corporation, priority 2006, published 2010).
Several values for one entry are separate records, joined by “and”; a condition that tells them apart may be missing. Identical values can stand only once.

molecular target: JNK1 (Homo sapiens, UniProt P45983); assay: JNK1 kinase DELFIA (phosphorylation of biotinylated GST-ATF2); assay type: biochemical; conditions: DELFIA, 2 nM JNK1, final ATP 7 uM, 10 min pre-incubation; reported as range for a group
Sequence (P45983 whole entry, species assumed): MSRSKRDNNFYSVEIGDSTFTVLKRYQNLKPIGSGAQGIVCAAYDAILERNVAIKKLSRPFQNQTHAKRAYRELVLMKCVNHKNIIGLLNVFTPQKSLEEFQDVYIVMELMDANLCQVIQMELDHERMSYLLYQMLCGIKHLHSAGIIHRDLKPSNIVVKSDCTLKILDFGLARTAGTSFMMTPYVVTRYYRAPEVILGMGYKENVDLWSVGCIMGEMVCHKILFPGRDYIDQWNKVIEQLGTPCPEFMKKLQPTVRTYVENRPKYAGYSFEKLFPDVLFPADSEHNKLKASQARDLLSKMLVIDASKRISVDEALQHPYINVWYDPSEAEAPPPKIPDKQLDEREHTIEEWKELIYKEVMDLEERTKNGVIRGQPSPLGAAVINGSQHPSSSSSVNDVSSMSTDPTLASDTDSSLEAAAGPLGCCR
Method: (§1) Before initiation of kinase reactions, compounds were pre-incubated with the enzyme for 10 minutes. Pre-incubation reactions contained 50 mM HEPES pH 7.3, 10 mM MgCl2, 1 mM DTT, 75 mM NaCl, 1 mM EDTA, 1 mM EGTA, 0.01% CHAPS, 2 nM JNK1, 6 ug/mL biotinylated GST-ATF2, 0.1 mg/ml BSA, 5% DMSO and 0-100 μM compound in a total volume of 40 μL. After a 10 minute room temperature pre-incubation, 10 μL of 35 μM ATP was added to start the reaction (final concentration of ATP=7 uM). Reactions were incubated at room temperature for 30 minutes. A small aliquot (10 uL) was taken and quenched by adding into 190 uL of DELFIA Assay buffer containing 100 mM EDTA. The amount of phosphate transferred to biotinylated GST-ATF2 was measured using the Dissociation Enhanced Lanthanide Fluorescence Immuno-assay (DELFIA) from Perkin Elmer according to manufacturers protocol. Briefly, biotinylated GST-ATF2 was captured on streptavidin coated plates for 1 hour, washed twice, then incubated for 1 hour with a 1:1000 dilution of rabbit-anti-phospho-ATF2 antibody and a 1:3500 dilution of Europium-labeled anti-rabbit secondary antibody. Free antibody was removed with six washes, Europium was dissociated from the antibody, and Europium fluorescence was measured using an excitation wavelength of 340 nm and an emission wavelength of 615 nm. JNK2 and JNK3 kinase reactions were carried out similarly, with the exception that the final concentration of ATP was 4 uM and 2 uM, respectively.

Structure (SMILES)	IC50
Cc1nc2cc(CNC(=O)c3cccn4c(C(=O)N[C@H](CO)CC(C)C)c(-c5ccsc5)nc34)ccc2n1C [Compound 139]	6 to 100 nM and 6 to 20 nM
CC(C)C[C@@H](CO)NC(=O)c1c(-c2ccsc2)nc2c(C(=O)NCc3ccc4[nH]ncc4c3)cccn12 [Compound 277]	6 to 100 nM and 6 to 20 nM
Nc1nc2ccc(CNC(=O)c3cccn4c(C(=O)N[C@@H](CO)CC5CC5)c(-c5ccsc5)nc34)cc2s1 [Compound 285]	6 to 100 nM
CC(C)C[C@@H](CO)NC(=O)c1c(-c2ccsc2)nc2c(C(=O)NCc3ccc(NC4CCCC4)nc3)cccn12 [Compound 292]	6 to 100 nM
CC(C)C[C@@H](CO)NC(=O)c1c(-c2ccsc2)nc2c(C(=O)NCc3ccc(N4CCCCCC4)nc3)cccn12 [Compound 298]	6 to 100 nM
CC(C)C[C@@H](CO)NC(=O)c1c(-c2ccsc2)nc2c(C(=O)NCc3ccc(-c4ccccc4)nc3)cccn12 [Compound 305]	6 to 100 nM
CC(C)C[C@@H](CO)NC(=O)c1c(-c2ccsc2)nc2c(C(=O)NCc3ccc(N4CCCC4=O)nc3)cccn12 [Compound 324]	6 to 100 nM
CC(C)C[C@@H](CO)NC(=O)c1c(-c2ccsc2)nc2c(C(=O)NCc3ccc(C(=O)O)cc3)cccn12 [Compound 326]	6 to 100 nM
CC(C)C[C@@H](CO)NC(=O)c1c(-c2cccnc2)nc2c(C(=O)NCc3ccc4nc(N)sc4c3)cccn12 [Compound 405]	6 to 100 nM
CCc1nc2c(C(=O)NCc3cnn(-c4ccc(C)cc4)c3)cccn2c1C(=O)O [Compound 445]	6 to 100 nM
CC(C)C[C@@H](CO)NC(=O)c1c(-c2ccc(Cl)cc2)nc2c(C(=O)NCc3ccc4nc(N)sc4c3)cccn12 [Compound 453]	6 to 100 nM
CCc1nc2c(C(=O)NCc3ccc(S(C)(=O)=O)cc3)cccn2c1C(=O)N[C@H](CO)CC(C)C [Compound 457]	6 to 100 nM
CCc1nc2c(C(=O)NCc3ccc4[nH]ncc4c3)cccn2c1C(=O)N[C@H](CO)CC(C)C [Compound 471]	6 to 100 nM
CCc1nc2c(C(=O)NCc3cnn(-c4ccc(S(C)(=O)=O)cc4)c3)cccn2c1C(=O)N[C@H](CO)CC(C)C [Compound 472]	6 to 100 nM
CC(C)C[C@@H](CO)NC(=O)c1c(-c2ccccn2)nc2c(C(=O)NCc3ccn(-c4ccccc4)n3)cccn12 [Compound 477]	6 to 100 nM
Cc1nc2ccc(CNC(=O)c3cccn4c(C(=O)NC(C)C)c(-c5ccccn5)nc34)cc2[nH]1 [Compound 480]	6 to 100 nM
CC(C)C[C@@H](CO)NC(=O)c1c(-c2ccccn2)nc2c(C(=O)NCc3cnc4nc(N)sc4c3)cccn12 [Compound 481]	6 to 100 nM

Structure (SMILES)	IC50
CC(C)C[C@@H](CO)NC(=O)c1c(-c2ccccn2)nc2c(C(=O)NCc3cnn(-c4cccc(C(F)(F)F)c4)c3)cccn12 [Compound 484]	6 to 100 nM
CC(C)C[C@@H](CO)NC(=O)c1c(-c2ccccn2)nc2c(C(=O)NCc3ccc(N4CCCC4=O)cc3)cccn12 [Compound 485]	6 to 100 nM and 6 to 20 nM
CC(C)C[C@@H](CO)NC(=O)c1c(-c2ccccn2)nc2c(C(=O)NCc3ccc4occc4c3)cccn12 [Compound 489]	6 to 100 nM
Cc1cccc(-n2cc(CNC(=O)c3cccn4c(C(=O)N[C@H](CO)CC(C)C)c(-c5ccccn5)nc34)cn2)c1 [Compound 490]	6 to 100 nM
CC(C)C[C@@H](CO)NC(=O)c1c(-c2ccccn2)nc2c(C(=O)NCc3cnn(-c4ccc(S(C)(=O)=O)cc4)c3)cccn12 [Compound 491]	6 to 100 nM and 6 to 20 nM
CC(C)C[C@@H](CO)NC(=O)c1c(-c2ccccn2)nc2c(C(=O)NCc3ccc4[nH]ncc4c3)cccn12 [Compound 502]	6 to 100 nM and 6 to 20 nM and 6 to 10 nM
CC(C)C[C@@H](CO)NC(=O)c1cnc2c(C(=O)NCc3ccc4nc(N)sc4c3)cccn12 [Compound 543]	6 to 100 nM
CC(C)C[C@@H](CO)NC(=O)c1c(-c2ccccc2F)nc2c(C(=O)NCc3ccc4nc(N)sc4c3)cccn12 [Compound 545]	6 to 100 nM
COC[C@H](CC(C)C)NC(=O)c1c(-c2ccsc2)nc2c(C(=O)NCc3ccc4nc(N)sc4c3)cccn12 [Compound 593]	6 to 100 nM
Cc1nc2c(C(=O)NCc3ccc4nc(N)sc4c3)cccn2c1C(=O)N[C@H](CO)CC(C)C [Compound 598]	6 to 100 nM and 6 to 20 nM
CC(C)C[C@@H](CO)NC(=O)c1cnc2c(C(=O)NCc3cnn(-c4ccc(S(C)(=O)=O)cc4)c3)cccn12 [Compound 629]	6 to 20 nM and 6 to 10 nM
Cc1nc2ccc(-n3cc(CNC(=O)c4cccn5c(C(=O)N[C@H](CO)CC(C)C)cnc45)cn3)cc2n1C [Compound 647]	6 to 100 nM and 6 to 20 nM
CC(C)C[C@@H](CO)NC(=O)c1cnc2c(C(=O)NCc3cnn(-c4ccc(S(=O)(=O)N(C)C)cc4)c3)cccn12 [Compound 650]	6 to 100 nM and 6 to 20 nM
CC(C)CC(CO)NC(=O)c1cnc2c(C(=O)NCc3cnn(-c4ccc(S(=O)(=O)N(C)C)c(Cl)c4)c3)cccn12 (stereo not drawn) [Compound 651]	6 to 100 nM and 6 to 20 nM and 6 to 10 nM
CC(C)C[C@@H](CO)NC(=O)c1cnc2c(C(=O)NCc3cnn(-c4ccc(S(=O)(=O)N(C)C)c(F)c4)c3)cccn12 [Compound 652]	6 to 100 nM and 6 to 20 nM and 6 to 10 nM
CC(C)C[C@@H](CO)NC(=O)c1c(-c2ccsc2)nc2c(NC(=O)Cc3ccc4c(c3)OCO4)cccn12 [Compound 664]	6 to 100 nM

Other lines, results leading:

IC50	Structure (SMILES)
6 to 100 nM	CC[C@H](C)[C@@H](CO)NC(=O)c1c(-c2ccsc2)nc2c(C(=O)NCc3ccc4nc(N)sc4c3)cccn12 [Compound 46]
6 to 100 nM	CC(C)[C@@H](CO)NC(=O)c1c(-c2ccsc2)nc2c(C(=O)NCc3ccc4nc(N)sc4c3)cccn12 [Compound 47]
6 to 100 nM	Nc1nc2ccc(CNC(=O)c3cccn4c(C(=O)N[C@H](CO)C5CCCCC5)c(-c5ccsc5)nc34)cc2s1 [Compound 69]
6 to 100 nM	CC(C)C[C@@H](CO)NC(=O)c1c(-c2ccsc2)nc2c(C(=O)NCc3ccc4c(c3)OCO4)cccn12 [Compound 94]
6 to 100 nM	CC(C)c1nc2ccc(CNC(=O)c3cccn4c(C(=O)NCC5(O)CCCCC5)c(-c5ccsc5)nc34)cc2[nH]1 [Compound 117]
6 to 100 nM	Cc1nc2ccc(CNC(=O)c3cccn4c(C(=O)NCC5(O)CCCCC5)c(-c5ccsc5)nc34)cc2[nH]1 [Compound 118]
6 to 100 nM	CCc1nc2c(C(=O)NCc3ccc4nc(C)sc4c3)cccn2c1C(=O)N[C@H](CO)CC(C)C [Compound 131]
6 to 100 nM	CC(C)C[C@@H](CO)NC(=O)c1c(-c2ccsc2)nc2c(C(=O)NCc3cnc4nc(N)sc4c3)cccn12 [Compound 150]
6 to 20 nM	CNc1nc2ccc(CNC(=O)c3cccn4c(C(=O)N[C@H](CO)CC(C)C)c(-c5ccccn5)nc34)cc2s1 [Compound 156]
6 to 100 nM	CC(C)C[C@@H](CO)NC(=O)c1c(-c2ccsc2)nc2c(C(=O)NCc3ccc(C(F)(F)F)nc3)cccn12 [Compound 209]
6 to 100 nM	CC(C)C[C@@H](CO)NC(=O)c1c(-c2ccsc2)nc2c(C(=O)N[C@H](C)c3ccc(O)cc3)cccn12 [Compound 213]
6 to 100 nM	CC(C)C[C@@H](CO)NC(=O)c1c(-c2ccsc2)nc2c(C(=O)NCc3cnn(-c4cccc(C(F)(F)F)c4)c3)cccn12 [Compound 224]
6 to 100 nM	O=C(NCc1ccc2c(c1)OCO2)c1cccn2c(C(=O)N[C@H](CO)c3ccccc3)c(-c3ccsc3)nc12 [Compound 238]
6 to 100 nM	CSCC[C@@H](CO)NC(=O)c1c(-c2ccsc2)nc2c(C(=O)NCc3ccc(S(C)(=O)=O)cc3)cccn12 [Compound 242]
6 to 100 nM	COc1ccc(-c2cc(CNC(=O)c3cccn4c(C(=O)N[C@H](CO)CC(C)C)c(-c5ccsc5)nc34)no2)cc1 [Compound 274]
6 to 100 nM	Nc1nc2ccc(CNC(=O)c3cccn4c(C(=O)N[C@@H]5c6ccccc6C[C@@H]5O)c(-c5ccsc5)nc34)cc2s1 [Compound 279]
6 to 100 nM	CCCC[C@@H](CO)NC(=O)c1c(-c2ccsc2)nc2c(C(=O)NCc3ccc4nc(N)sc4c3)cccn12 [Compound 280]
6 to 100 nM	Nc1nc2ccc(CNC(=O)c3cccn4c(C(=O)NC5CCCC5CO)c(-c5ccsc5)nc34)cc2s1 (stereo not drawn) [Compound 283]

same assay, conditions: read-out: JNK 1 IC50

IC50 [nM]	Structure (SMILES)
23	Cc1nc2ccc(CNC(=O)c3cccn4c(C(=O)NCC5(O)CCCCC5)c(-c5ccsc5)nc34)cc2[nH]1 [Compound 118]
16	Cc1nc2ccc(-n3cc(CNC(=O)c4cccn5c(C(=O)N[C@H](CO)CC(C)C)cnc45)cn3)cc2n1C [Compound 647]
10	CC(C)CC(CO)NC(=O)c1cnc2c(C(=O)NCc3cnn(-c4ccc(S(=O)(=O)N(C)C)c(Cl)c4)c3)cccn12 (stereo not drawn) [Compound 651]
11	CC(C)C[C@@H](CO)NC(=O)c1cnc2c(C(=O)NCc3cnn(-c4ccc(S(=O)(=O)N(C)C)c(F)c4)c3)cccn12 [Compound 652]

molecular target: JNK2 (Homo sapiens, UniProt P45984); assay: JNK2 kinase DELFIA (phosphorylation of biotinylated GST-ATF2); assay type: biochemical; conditions: final ATP 4 uM, reported as range for a group
Sequence (P45984 whole entry, species assumed): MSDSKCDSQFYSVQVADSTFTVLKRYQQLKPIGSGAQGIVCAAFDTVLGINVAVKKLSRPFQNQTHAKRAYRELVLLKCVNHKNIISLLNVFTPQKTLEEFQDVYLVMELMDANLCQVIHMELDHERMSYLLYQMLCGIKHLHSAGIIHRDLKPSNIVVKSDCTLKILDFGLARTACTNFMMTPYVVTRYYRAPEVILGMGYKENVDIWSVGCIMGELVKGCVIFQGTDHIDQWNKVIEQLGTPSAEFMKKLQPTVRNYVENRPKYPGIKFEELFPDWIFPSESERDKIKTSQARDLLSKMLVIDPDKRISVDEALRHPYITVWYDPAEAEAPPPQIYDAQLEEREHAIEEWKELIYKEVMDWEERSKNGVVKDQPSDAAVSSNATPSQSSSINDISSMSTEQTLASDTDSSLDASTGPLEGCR
Method: as §1

IC50 [nM]	Structure (SMILES)
201 to 666	CC[C@@H](CO)NC(=O)c1c(-c2ccsc2)nc2c(C(=O)NCc3ccc4nc(N)sc4c3)cccn12 [Compound 13]
107 to 173	Nc1nc2ccc(CNC(=O)c3cccn4c(C(=O)NCC5(O)CCCCC5)c(-c5ccsc5)nc34)cc2s1 [Compound 15]
107 to 173	C[C@H](CO)NC(=O)c1c(-c2ccsc2)nc2c(C(=O)NCc3ccc4nc(N)sc4c3)cccn12 [Compound 23]
201 to 666	CC(C)CNC(=O)c1c(-c2ccsc2)nc2c(C(=O)NCc3ccc4nc(N)sc4c3)cccn12 [Compound 38]
52 to 94	C[C@@H](NC(=O)c1c(-c2ccsc2)nc2c(C(=O)NCc3ccc4nc(N)sc4c3)cccn12)c1ccccc1 [Compound 42]
1070 to 11500	Cc1cc(C(=O)NCc2ccc3nc(N)sc3c2)c2nc(C)c(C(=O)N[C@H](CO)CC(C)C)n2c1 [Compound 351]

molecular target: JNK3 (Homo sapiens, UniProt P53779); assay: JNK3 kinase DELFIA (phosphorylation of biotinylated GST-ATF2); assay type: biochemical; conditions: final ATP 2 uM
Sequence (P53779 whole entry, species assumed): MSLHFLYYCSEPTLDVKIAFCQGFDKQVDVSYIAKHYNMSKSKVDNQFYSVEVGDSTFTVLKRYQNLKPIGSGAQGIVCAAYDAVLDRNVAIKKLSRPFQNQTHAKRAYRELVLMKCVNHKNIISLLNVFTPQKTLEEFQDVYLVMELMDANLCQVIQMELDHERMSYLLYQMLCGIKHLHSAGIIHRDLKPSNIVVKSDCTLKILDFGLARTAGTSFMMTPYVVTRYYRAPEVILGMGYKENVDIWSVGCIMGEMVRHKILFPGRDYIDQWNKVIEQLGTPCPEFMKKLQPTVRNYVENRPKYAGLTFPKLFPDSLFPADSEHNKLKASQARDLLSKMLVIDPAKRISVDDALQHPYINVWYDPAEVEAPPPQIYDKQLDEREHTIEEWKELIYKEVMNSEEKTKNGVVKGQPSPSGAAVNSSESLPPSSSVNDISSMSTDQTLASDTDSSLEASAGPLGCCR
Method: as §1

IC50 [nM]	Structure (SMILES)
54 to 98	CC[C@@H](CO)NC(=O)c1c(-c2ccsc2)nc2c(C(=O)NCc3ccc4nc(N)sc4c3)cccn12 [Compound 13]
118 to 174	Nc1nc2ccc(CNC(=O)c3cccn4c(C(=O)NCC5(O)CCCCC5)c(-c5ccsc5)nc34)cc2s1 [Compound 15]
118 to 174	C[C@H](CO)NC(=O)c1c(-c2ccsc2)nc2c(C(=O)NCc3ccc4nc(N)sc4c3)cccn12 [Compound 23]
54 to 98	CC(C)CNC(=O)c1c(-c2ccsc2)nc2c(C(=O)NCc3ccc4nc(N)sc4c3)cccn12 [Compound 38]
118 to 174	C[C@@H](NC(=O)c1c(-c2ccsc2)nc2c(C(=O)NCc3ccc4nc(N)sc4c3)cccn12)c1ccccc1 [Compound 42]
